This is an account of results in US20120207856A1, “MSH3 Expression Status Determines the Responsiveness of Cancer Cells to the Chemotherapeutic Treatment with PARP Inhibitors and Platinum Drugs” (Baylor Research Institute, priority 2011, published 2012).

Where two headings read alike, the source gives them in different places.

Assay [1] has as its system HCT116+3+5 and G5 cells. The experiment in a line: Immunofluorescence staining for active caspase-3. The class given is cell-based, human. The conditions noted are these: MSH3-deficient cells, FIG. 2H. As for the experimental part:
(§1) Immunofluorescence staining—Ten thousand cells were grown on glass coverslips in a 12-well plate. The cells were fixed with 4% paraformaldehyde (pH 7.5) in PBS for 15 minutes, permeabilized with 0.3% Triton X-100 for five minutes, and then blocked with 10% goat serum (Invitrogen, Carlsbad, Calif.) for one hour. The cells were subsequently incubated with an anti-active caspase-3 antibody (1:500, G748, Promega, Madison, Wis.) an anti-phosphorylated H2AX (pH2AX) antibody (1:5000, JBW301, Millipore Corporation, Billerica, Mass.), or an anti-53BP1 antibody (1:600, ab21083, Abcam, Cambridge, Mass.) for one hour, followed by a secondary antibody (1:800, Alexa Fluor 555 goat anti-mouse or anti-rabbit antibody, Invitrogen) for 40 minutes. Prolong Gold with DAPI (Invitrogen) was used in mounting the medium. The images were obtained using AxioSkop2 multichannel epifluorescence microscope equipped with the AxioVision software (Carl Zeiss, Thornwood, N.Y.).

The next assay relates to pH2AX. The experiment in a line: Immunofluorescence staining for pH2AX foci. The class given is cell-based, human. As for the experimental part:
as §1

The test system of a further assay is HCT116+3+5 cells. The experiment in a line: Clonogenic survival after transient MSH3 siRNA transfection. The assay is classed as cell-based, human. The settings on record: MSH3 siRNA versus non-targeted siRNA; cisplatin 5 μM and 10 μM, oxaliplatin 2 μM and 5 μM, 48 hours after transfection; FIGS. 3B & 3C.
The test system of another assay is HHUA cells. The settings on record: MSH3-deficient HHUA versus MSH3-proficient HHUA complemented with chromosome 5; cited from earlier work.
In assay [2] the test system is HCT116+3+5 and G5 cells. The experiment in a line: Clonogenic survival after MLH1 siRNA transfection. The class given is cell-based, human.
For another assay, the system named is HT29 cells. The assay can be described thus: Clonogenic survival after transient MSH3 siRNA transfection. The class given is cell-based, human. The settings on record: HT29 cells treated with MSH3 siRNA versus non-targeted siRNA; FIGS. 3E & 3F.
The test system of assay [3] is HCT116, HCT116+3, HCT116+3+5, G1, G2 and G5 cells. The assay can be described thus: Clonogenic survival assay in isogenic HCT116-derived cell lines. The assay is classed as cell-based, human. As for the experimental part: (§2) Cell lines and cell culture—The human colon cancer cell lines HCT116, HCT116+ch.3 (HCT116+3), HCT116+ch.3+ch.5 (HCT116+3+5) have been described previously (10,23). HCT116+3+5 cells were stably transfected with a tetracycline-regulated retroviral vector, the TMP (Open Biosystems, Huntsville, Ala.) that encodes shRNA against MSH3. Stable MSH3-deficient clones G1, G2 and G5 were isolated (see results and (23)). HCT116, HCT116+3, and HCT116+3+5 cells were grown in IMDM (Invitrogen, Rockville, Md.) with 10% fetal bovine serum. The G1, G2 and G5 cells were maintained in IMDM with 10% fetal bovine serum and 0.6 μg/ml of puromycin. To turn off the expression of MSH3 shRNA, 1 μg/ml of doxycycline was added to the culture medium.
Clonogenic survival assay—Two hundred cells were seeded in each well of a six-well plate. For the measurement of the cytotoxicity caused by cisplatin or oxaliplatin, the cells were treated with the drugs for 24 hours once the cells were attached to the plate. For the measurement of the cytotoxicity caused by olaparib, cells were continuously treated with the drug during the experiments. After 8-10 days, the number of colonies (colonies with >50 cells) were counted, and the relative change in clonogenic survival of drug-treated versus untreated cells was determined.

Another assay concerns 53BP1. The assay can be described thus: Immunofluorescence staining for 53BP1 foci. The assay is classed as cell-based, human. The settings on record: MSH3-deficient G5 cells after treatment; 5 μM for 6 hours, analyzed after 48 hours; FIGS. 5C & 5D. Here is the method: as §1
The test system of assay [4] is HCT116+3+5 and G5 cells. The assay can be described thus: Proliferation assay (BrdU incorporation). The conditions noted are these: MSH3-deficient cells; FIG. 2G. The class given is cell-based, human. Here is the method: Proliferation assay—The proliferation index was measured by bromodeoxyuridine (BrdU) incorporation in HCT116+3+5 and G5 cells, 48 hours after the initial 24 hour treatment with cisplatin or oxaliplatin (Cell Proliferation ELISA, BrdU, Roche Diagnositics, Indianapolis, Ind.). Experiments were performed in triplicate and data was obtained from three or four independent experiments.

The subject of a further assay is HCT116+3+5 and G1 cells. The assay can be described thus: Cell cycle analysis by flow cytometry. The assay is classed as cell-based, human. The conditions noted are these: MSH3-deficient versus MSH3-proficient cells. Here is the method: Cell cycle analysis—One million cells were seeded in 10 cm plates. Once attached, the cell lines were treated with oxaliplatin for 24 hours. After an additional 48 hours, cells were washed twice with cold PBS, fixed in cold 70% ethanol at −20° C. overnight or for several days. The ethanol fixed cells (2×10^6) were subsequently washed with PBS twice and incubated with 300 μl of PBS and 0.15% RNase A for 15 minutes at 37° C. The cells were stained with 75 μg/ml propidium iodide for 30 minutes and then analyzed for DNA content using the FACSCantoII flow cytometer (BD Biosciences, San Jose, Calif.). Cell cycle data was analyzed by the Flowjo software (Tree Star, Ashland, Oreg.).

For a further assay, the system named is MSH3-deficient cells. The experiment in a line: Sensitivity of MSH3-deficient cells to SN-38 (data not shown). The assay is classed as cell-based.
Assay [5] concerns tumors occurring in MSH2-null mice. The settings on record: MSH2-null mice versus mice with MSH2 G674D mutations; cited from earlier work.
For another assay, the system named is MSH3. The experiment in a line: Western blot analysis of MSH3 expression. The assay is classed as cell-based, human. The settings on record: G1, G2 and G5 clones; doxycycline 1 μg/ml; densitometry; FIGS. 1A & 1B. As for the experimental part:
as §2
Western blot analysis—Proteins from cell lysates were prepared, separated on the SDS-PAGE and transferred to PVDF membranes as described previously (31). Anti-hMSH3 mouse monoclonal antibody (dilution; 1:250, Clone 52, BD Pharmingen, San Jose, Calif.), anti-hMLH1 mouse monoclonal antibody (1:200, G168-728, BD Pharmingen) and anti-β-actin antibody (1:10000, Clone AC-15, Sigma-Aldrich) were used as primary antibodies for the detection of specific proteins. Goat anti-mouse antibody (1:3000, sc-2005, Santa Cruz Biotechnology, Santa Cruz, Calif.) was used as a secondary antibody. […]
For orientation: A western blot detects proteins with antibodies after separation by electrophoresis.

As for `O=C1[O][Pt]2([NH][C@@H]3CCCC[C@H]3[NH]2)[O]C1=O` [oxaliplatin], in the assay on HCT116+3+5 and G5 cells [1], the “apoptotic fraction (anti-active caspase-3 positive cells)” value is “increased”. In the assay on pH2AX (MSH3-deficient G5 versus MSH3-restored G5 and HCT116+3+5, 48 and 72 hours, FIGS. 5A & 5B), the “rate of reduction in the number of pH2AX foci-positive cells” value was “lower rate of reduction”. Moreover, in the assay with pH2AX (MSH3-proficient versus -deficient cell lines, 5 μM for 6 hours), the “number of pH2AX foci-positive cells before and after treatment” value is reported as “no differences”. For the same compound, in the assay with HCT116+3+5 cells, the “susceptibility (clonogenic survival)” value was “more susceptible”. Moreover, the sensitivity entry with HHUA cells is listed as “did not differ”. Besides, the “sensitivity (clonogenic survival)” value in the assay with HCT116+3+5 and G5 cells [2] is “more sensitive”; in the assay with HT29 cells, “more sensitive”; in assay [3] (MSH3-deficient HCT116, HCT116+3 and G5 versus parental HCT116+3+5, FIG. 2C), “significantly more sensitive”. In addition, the “sensitivity (clonogenic survival) on restoration of MSH3” value in assay [3] (MSH3-deficient cells (G1, G2, G5) with versus without doxycycline 1 μg/ml, FIG. 2D) was “restoration of oxaliplatin insensitivity”. Further, the “levels of 53BP1” value with 53BP1 is on record as “Sustained levels”. Besides, the “cell proliferation (BrdU incorporation)” value in the assay on HCT116+3+5 and G5 cells [4] is recorded as “decreased”. Besides, the “degree of cell growth inhibition (decrease in S-phase population)” value with HCT116+3+5 and G1 cells (FIG. 2E) is given as “significantly higher”. Further, in the assay with HCT116+3+5 and G1 cells (FIG. 2F), the “levels of apoptosis (increase in sub-G1 population)” value is reported as “significantly higher”.

For `O=C(c1cc(Cc2n[nH]c(=O)c3ccccc23)ccc1F)N1CCN(C(=O)C2CC2)CC1` [olaparib], the “sensitivity (clonogenic survival)” value in assay [3] (MSH3-deficient G5 versus MSH3-restored G5 cell line, 2 μM, FIG. 6A) is given as “more sensitive”.

`CCc1c2c(nc3ccc(O)cc13)-c1cc3c(c(=O)n1C2)COC(=O)[C@]3(O)CC` [SN-38]: in the assay with MSH3-deficient cells, the “sensitization by MSH3 deficiency” value was “sensitized”.

Consider `N.N.[Cl][Pt][Cl]` [cisplatin], for which the “susceptibility (clonogenic survival)” value in the assay on HCT116+3+5 cells is recorded as “more susceptible”. Also, the sensitivity entry with HHUA cells is listed as “did not differ”. Further, the “sensitivity (clonogenic survival)” value with HCT116+3+5 and G5 cells [2] (G5 versus HCT116+3+5, MLH1 down-regulated by siRNA, 2 μM and 5 μM, FIGS. 4C & 4D) is given as “more sensitive”; with HT29 cells, “more sensitive”; in [3] (G1 and G2 clones, data not shown) it was “behaved similarly to G5”; in [3] (HCT116 versus HCT116+3 cell lines, FIG. 2A), “No significant differences”; in assay [3] (MSH3-deficient G5 clone versus parental HCT116+3+5, FIG. 2A), “more sensitive”. Also, the “sensitivity (clonogenic survival) on restoration of MSH3 expression” value in assay [3] (G5 cells with versus without doxycycline, 5 μM, FIG. 2B) is listed as “desensitized”. Besides, in assay [3] (MSH3-proficient HCT116+3+5 versus HCT116 and HCT116+3, FIG. 2A), the “resistance (clonogenic survival)” value is given as “higher resistance”. Further, the resistance of tumors result in [5] is “more resistant”.

Consider `C[C@H]1c2cccc(O)c2C(=O)C2=C(O)[C@]3(O)C(=O)C(C(N)=O)=C(O)[C@@H](N(C)C)[C@@H]3[C@@H](O)[C@@H]21` [doxycycline], for which the “MSH3 expression relative to parental HCT116+3+5” value with MSH3 was 40-60%.
